According to the OPERA property sets (Mansouri et al. 2018):
Where a SMILES comes first, the peptide text is derived from it. [ ]: non-standard residue; d: D form. ξ: configuration not given here. ξY = NC(Cc1ccc(O)cc1)C(=O)O

| SMILES | logP |
| --- | --- |
| CC1CC2C3CCC4=CC(=O)C=CC4(C)C3(F)C(O)CC2(C)C1(O)C(=O)COC(=O)C1CCCCC1 (configuration not stated) | 4.46 |
| ClCC1(C(Cl)Cl)C2CC(Cl)C1(C(Cl)Cl)CC2(Cl)Cl (configuration not stated) | 5.75 |
| CC(=O)c1cc2ccc3cccc4ccc(c1)c2c34 | 4.29 |
| CCO[PH](=O)O | -2.7 |
| CC(C)CC(NC(=O)C(CC(C)C)NC(=O)C1CCCN1)C(=O)O (stereo not drawn) (H-Pro-Leu-Leu-OH; configuration not given here) | -1.64 |
| COC(=O)C(C)NP(=O)(OCC1C=CC(n2cc(C)c(=O)[nH]c2=O)O1)Oc1ccc(OC)cc1 (configuration not stated) | 1.09 |
| CC(C)CNc1ncnc2c1ncn2C1OC(CO)C(O)C1O (configuration not stated) | 1.01 |
| CC(=O)c1ccc2ccc3cccc4ccc1c2c34 | 4.18 |
| Brc1ccc2ccc3ccc(Br)c4ccc1c2c34 | 6.73 |
| CCCOC(=O)c1cnc2n(c1=O)C(C)CCC2 (configuration not stated) | 1.14 |
| CN(C)CCCC(c1ccccc1)c1ccccc1 | 4.91 |
| C#CCNc1nc(CCC)nc(N2CCOCC2)n1 | 2.3 |
| c1ccc2c(c1)OCCOCCOc1ccccc1OCCO2 | 2.21 |
| CN(C)C(c1ccccc1)c1ccccc1 | 3.37 |
| Cc1cccc(Nc2ccncc2S(=O)(=O)NC(=O)NC(C)C)c1 | 3.37 |
| CCC(C)C(NC(=O)CNC(=O)C1CCCN1C(=O)C(N)Cc1ccc(O)cc1)C(=O)O (configuration not stated) (H-YPGI-OH; configuration not given here) | -1.65 |
| Cc1cc2c(o1)c(C)cc1c(C)cc(=O)n(C)c12 | 3.43 |
| CC(C)NC(=NC#N)NS(=O)(=O)c1cnccc1NC1CCCCCCC1 | 2.58 |
| Cc1ccc(CO)c(C=NNC(=O)c2ccc(C(C)(C)C)cc2)c1O | 4.73 |
| COC(=O)C(C)NP(=O)(OCC1C=CC(n2cc(C)c(=O)[nH]c2=O)O1)Oc1ccc(C#N)cc1 (configuration not stated) | 0.91 |
| CCC(C)C(NC(=O)C1CCCN1)C(=O)O (stereo not drawn) (H-Pro-Ile-OH; configuration not given here) | -2.56 |
| Cc1nc2c3c(c(C(=O)N(C)C)cn2c1CO)CCC(c1ccccc1)O3 (configuration not stated) | 1.72 |
| Cc1ccc(CO)c(C=NNC(=O)c2cccc(F)c2)c1O | 3.41 |
| CCOC(=O)C1=C(C)NC(C)=C(C(=O)OC)C1c1cccc(OC)c1OC (configuration not stated) | 3.58 |
| CC(C)CC(N)C(=O)NC(CC(C)C)C(=O)N1CCCC1C(=O)NC(CC(C)C)C(=O)O (configuration not stated) (H-LLPL-OH; configuration not given here) | -1 |

| SMILES | logP |
| --- | --- |
| CCCc1nc(NCC(=O)N(C)C)nc(N2CCOCC2)n1 | 0.67 |
| OC(CNCCc1ccccc1)CON=C(C1CC1)C1CC1 (configuration not stated) | 2.44 |
| Brc1cc2cccc3ccc4cccc1c4c32 | 5.84 |
| CC1(C)CC(=O)C=C(N2CCCCC2)C1 | 2.83 |
| COc1ccc(CCN(C)CCCC(C#N)(c2cc(OC)c(OC)c(OC)c2)C(C)C)cc1OC (configuration not stated) | 3.71 |
| COc1ccc(C=C2C(=O)NC(=S)NC2=O)cc1 | 0.76 |
| CCCC(=NOCC)C1=C(O)CC2(CCC(C)C2)OC1=O (configuration not stated) | 3.66 |
| CC(=O)OC(C)(C)C1CCC2(C)CCCC3(CO3)C2C1 (configuration not stated) | 4.08 |
| CCCCCCC(Nc1ccc([N+](=O)[O-])cc1[N+](=O)[O-])C(=O)O (configuration not stated) | 4.2 |
| C=C(Cl)CON=C(C)c1cccc(Oc2nc(OC)cc(OC)n2)c1C(=O)OC | 3.63 |
| O=C(O)c1ccccc1C(c1ccc(O)cc1)c1ccc(O)cc1 | 2.61 |
| COc1ccc(C2Cc3cc(SC)ccc3N(CCN(C)C)C(=O)C2OC(C)=O)cc1 (configuration not stated) | 4 |
| CCOC(=O)c1ccc(N=NN(C)C(=O)OCOC(=O)C(C)NC(C)=O)cc1 (configuration not stated) | 2.73 |
| CC(C)CC(N)C(=O)NC(CC(C)C)C(=O)NC(C)C(=O)NC(Cc1ccccc1)C(=O)O (configuration not stated) (H-LLAF-OH; configuration not given here) | -1 |
| C=CC(=O)OCCCOC(=O)C=C | 0.87 |
| Cc1cc2c(ccc3c(C)cc(=O)n(C)c32)o1 | 3.08 |
| CCCCN1CCCC1CNC(=O)c1cc(S(N)(=O)=O)cc2c1OC(C)C2 (configuration not stated) | 2.8 |
| Clc1ccccc1N1CCN(CCn2nc3ccccc3n2)CC1 | 4 |
| O=C(O)CCCCCON=C(c1cccc(C(F)(F)F)c1)c1cnccn1 | 3.52 |
| CN1CC(O)N(C(=O)NCCCl)C1=O (configuration not stated) | 0.71 |
| Cc1ccc(CO)c(C=NNC(=O)c2cccs2)c1O | 3.03 |
| NC(Cc1c[nH]c2ccccc12)C(=O)NC(Cc1ccc(O)cc1)C(=O)O (configuration not stated) | -1.13 |
| CC1=CCC(C)(C)C=CCC2(C)OC2CC1 (configuration not stated) | 4.45 |
| O=C1C=C(N2CCOCC2)CN1c1ccc(Cl)cc1 | 1.9 |
| CCOCCOCCOC1CCC(NC(=O)NC23CC4CC(CC(C4)C2)C3)CC1 (configuration not stated) | 2.9 |

| SMILES | logP |
| --- | --- |
| NC(Cc1ccc(Cl)cc1)C(=O)O (configuration not stated) | -0.47 |
| CCC(C)SSc1ncc[nH]1 (configuration not stated) | 2.76 |
| CCOc1ccc(NC(=O)OC(C)c2ccccc2)cc1OCC (configuration not stated) | 3.56 |
| CC(=O)Oc1ccccc1C(=O)OC1Cc2c(O)cc(O)cc2OC1c1ccc(O)c(O)c1 (configuration not stated) | 2.87 |
| CCCc1c(C)nc2cccc(C)n2c1=O | 2.22 |
| NC(=O)C(N)Cc1c[nH]c2ccccc12 (configuration not stated) | 0.3 |
| CCCCCOCCCNc1[nH]cnc2ncnc1-2 | 2.74 |
| COc1ccc(CCNCC(O)COc2ccc(-c3nc(C)c[nH]3)cc2Br)cc1OC (configuration not stated) | 3.8 |
| Cc1cccc(C)c1CCc1cnc[nH]1 | 2.91 |
| CCC1CC2C3CCC4=CC(=O)CCC4C3CCC2(C)C1C(=O)CO (configuration not stated) | 4.01 |
| O=S(=O)(NC(=S)N1CCCCC1)c1cnccc1NC1CCCCCCC1 | 4.5 |
| C=CC(=O)OC1CCCCC1 | 2.8 |
| COCCNc1ncnc2c1ncn2C1OC(CO)C(O)C1O (configuration not stated) | -0.49 |
| CCOC(=O)c1cccc(CN)c1 | 1.44 |
| COc1ccccc1N1CCN(CCNCC(O)CON=C(C2CC2)C2CC2)CC1 (configuration not stated) | 3.21 |
| CC12CCC(c3c1ssc3=S)C2(C)C (configuration not stated) | 3.8 |
| c1nc2nc[nH]c(N3CCCCCC3)c-2n1 | 2.53 |
| COc1ccc(C(=O)N2CCN(c3ccc4c(c3)CCC(=O)N4)CC2)cc1OC | 1.04 |
| CC(C)NCC(O)CN1C(=O)COc2ccccc21 (configuration not stated) | 1.45 |
| Cc1cc2ccc3occ(C)c3c2oc1=O | 2.97 |
| COC(=O)C1=C(C)NC(C)=C(P2(=O)OCCCO2)C1c1ccccc1[N+](=O)[O-] (configuration not stated) | 1.3 |
| CCOC(=O)C(=Cc1ccccc1)S(=O)(=O)c1ccc([N+](=O)[O-])cc1 | 3.2 |
| CON(C)C(=O)c1cn2c(C)c(C)nc2c2c1CCC(c1ccccc1)O2 (configuration not stated) | 3.6 |
| COc1ccc(C2Cc3c(Cl)cccc3N(CCN(C)C)C(=O)C2OC(C)=O)cc1 (configuration not stated) | 4.4 |
| O=C(Nc1ccccc1)NC1CC(C(=O)O)Nc2cc(Cl)cc(Cl)c21 (configuration not stated) | 3.28 |

| SMILES | logP |
| --- | --- |
| O=c1cc(CBr)oc(Br)c1O | 1.27 |
| Nc1nnnn1-c1ccc(Cl)cc1 | 1.41 |
| O=C1C=C(N2CCOCC2)C(=O)N1c1ccc(F)cc1 | 1.5 |
| CCNC(=O)NS(=O)(=O)c1cnccc1Nc1ccccc1C | 3.06 |
| Cc1cnc(C(=O)OCCCn2ccc(=O)c(O)c2C)cn1 | -0.49 |
| Clc1cc2c(cc1Cl)Oc1c(Cl)c(Cl)cc(Cl)c1O2 | 6.2 |
| Cc1cc2oc(=O)cc(C)c2c2occc12 | 2.84 |
| c1ccc(CN2CCN(CCCOn3nnc4ccccc43)CC2)cc1 | 4 |
| CCCC(=NOCC)C1=C(O)CC2(CCC(CC)CC2)OC1=O (configuration not stated) | 4.47 |
| O=C1c2ccc(Cl)cc2OCN1CCO[N+](=O)[O-] | 2.74 |
| COc1cc2ncnc(Nc3cc(F)cc(C(F)(F)F)c3)c2cc1OC | 4.66 |
| CCCCOc1cccc2nc(N)nc(N)c12 | 2.81 |
| COC(=O)C(C)NP(=O)(OCC1C=CC(n2cc(C)c(=O)[nH]c2=O)O1)Oc1cccc(Br)c1 (configuration not stated) | 1.64 |
| CC(=O)Nc1ccc(S(=O)(=O)Nc2cc(C)nc(C)n2)cc1 | -0.14 |
| COc1ccc(CCNCC(O)COc2ccc(Cc3nc(C)c[nH]3)cc2)cc1OC (configuration not stated) | 2.5 |
| CCNC(=NC#N)NS(=O)(=O)c1cnccc1NC1CCCCCC1 | 1.53 |
| COc1cc(OC)c2c(c1)OC(c1ccc(OC)c(OC)c1)C(O)C2 (configuration not stated) | 3.1 |
| COc1ccc(C2Cc3c(cccc3[N+](=O)[O-])N(CCN(C)C)C(=O)C2OC(C)=O)cc1 (configuration not stated) | 3.7 |
| OCCNc1ncnc2nc[nH]c12 | -0.18 |
| CN1CCN(CCn2nc3ccccc3n2)CC1 | 0.74 |
| CCN(C)CC(=O)Nc1c(C)cccc1C | 1.82 |
| CC(c1ccccc1)N1CC(N2CCOCC2)=NC1=O (configuration not stated) | 0.8 |
| COc1cc(OS(C)(=O)=O)ccc1-c1cn2cccnc2n1 | 1.05 |
| CCCCCCCCCCNCCO | 3.62 |
| CSCCC(N)C(=O)NC(CC(C)C)C(=O)NC(Cc1ccccc1)C(=O)O (configuration not stated) | -1.03 |

| SMILES | logP |
| --- | --- |
| O=c1ssc(-c2ccccc2)c1-c1ccccc1 | 4.07 |
| CCOC(=O)C1=C(C)NC(C)=C(C(=O)OC)C1c1cccc2c1OCCO2 (configuration not stated) | 3.57 |
| CCOC(=O)CC(C(=O)OC)S(=O)(=O)c1ccc([N+](=O)[O-])cc1 (configuration not stated) | 1.4 |
| COc1ccc(CCNCC(O)COc2ccc(-c3nc(-c4cccs4)c[nH]3)cc2C)cc1OC (configuration not stated) | 4.8 |
| O=C1C=C(N2CCCC2)C(=O)N1c1ccc(F)cc1 | 2.3 |
| COc1cccc2c1OP(=O)(OCC1C=CC(n3cc(C)c(=O)[nH]c3=O)O1)OC2 (configuration not stated) | 0.15 |
| CCNc1ccncc1S(=O)(=O)NC(=NC#N)NC(C)C | -0.24 |
| Cc1oc2ccc3ccc(=O)oc3c2c1C | 2.97 |
| O=C1CCC(=O)N1c1cccc(Cl)c1Cl | 0.9 |
| NC(=O)C(Cc1c[nH]c2ccccc12)NC(=O)C(N)Cc1ccccc1 (stereo not drawn) (H-Phe-Trp-NH2; configuration not given here) | 1.38 |
| Cc1cc2c(cc(C)c3ccc(=O)oc32)o1 | 2.92 |
| NC(=O)c1c(O)cccc1O | 0.6 |
| CCC(C)C(NC(=O)C(N)CC(C)C)C(=O)O (stereo not drawn) (H-Leu-Ile-OH; configuration not given here) | -1.64 |
| CCOP(=O)(OCC)C(C)(C)[N+]([O-])=Cc1cc[n+]([O-])cc1 | -0.74 |
| O=C(O)CCCON=C(c1ccccc1)c1ncccn1 | 1.64 |
| O=[N+]([O-])c1ccc2c(c1)-c1ccccc1C2 | 3.99 |
| c1nc(N2CCCCC2)c2[nH]cnc2n1 | 2.11 |
| CCOc1cccc(COC(=O)C2C(C=C(C)C(=O)OC)C2(C)C)c1 (configuration not stated) | 4.78 |
| O=c1nc(Nc2ccccc2)[nH]c2c1ncn2CCCCO | 1.26 |
| S=C=NCCCCCCCCCCc1ccccc1 | 6.82 |
| NC(Cc1ccc(O)cc1)C(=O)NCC(=O)NCC(=O)O (stereo not drawn) (H-[ξY]-Gly-Gly-OH) | -3.51 |
| O=[N+]([O-])c1ccc(CSc2ncnc3c(C4OC(CO)C(O)C4O)n[nH]c23)cc1 (configuration not stated) | 0.5 |
